Assay results published in article PMC5915836, “Chiral probes for α1-AGP reporting by species-specific induced circularly polarised luminescence” (Chemical Science, 2018).

Legend:
[1] = target: T1, bovine α1-AGP (α1-acid glycoprotein) (Bos taurus, UniProt Q3SZR3); experiment: competitive displacement of [EuL^[…]], Eu emission; format: binding; design: unit not given here; conditions: pH 7.40, 298 K; competitive with [EuL^1]
T1 construct: gene ORM1
T1 sequence (Q3SZR3 19-202): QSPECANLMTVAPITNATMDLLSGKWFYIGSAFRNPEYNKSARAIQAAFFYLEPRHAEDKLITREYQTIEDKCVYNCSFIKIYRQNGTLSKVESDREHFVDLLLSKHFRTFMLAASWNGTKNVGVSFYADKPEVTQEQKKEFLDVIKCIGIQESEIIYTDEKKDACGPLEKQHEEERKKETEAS

[2] = target: T2, human α1-AGP (α1-acid glycoprotein); conditions: pH 7.40, 298 K; competitive with [EuL^1]
T2 construct: gene ORM1

SMILES: CCCCN1CCCCC1C(=O)Nc1c(C)cccc1C (centres unmarked) [bupivacaine]
- Bupivacaine [1]: 6.4
- Bupivacaine [2]: 5.6
